Assay results from ChEMBL document CHEMBL2046417, “Synthesis and evaluation of pyridylbenzofuran, pyridylbenzothiazole and pyridylbenzoxazole derivatives as ¹⁸F-PET imaging agents for β-amyloid plaques” (Bioorg Med Chem Lett, 2012).
pIC50: −log10 of the molar value. Calls of active or inactive are those of the source. The calls are words filed in the database; no cut-off is given here.

What was measured:
[1] = molecular target: T1, Amyloid-beta precursor protein (Homo sapiens, UniProt P05067); assay: Displacement of [3H]AZD2184 from human amyloid beta(1 to 40)
[2] = molecular target: T1, Amyloid-beta precursor protein; assay: Binding affinity to amyloid beta(1 to 40) in cortical section isolated from Alzheimer disease patient at 1 nM by autoradiographic analysis
Mus musculus = assay: Binding affinity to amyloid beta(1 to 40) in Tg2576 mouse plaque at 150 nmol/kg, iv after 10 mins by autoradiography analysis; type: functional, organism-based
[3] = molecular target: T1, Amyloid-beta precursor protein; assay: Binding affinity to amyloid beta(1 to 40) in cortical section isolated from Alzheimer disease patient by autoradiographic analysis; conditions: tested as the 3H-labelled form

T1 sequence (P05067 whole entry): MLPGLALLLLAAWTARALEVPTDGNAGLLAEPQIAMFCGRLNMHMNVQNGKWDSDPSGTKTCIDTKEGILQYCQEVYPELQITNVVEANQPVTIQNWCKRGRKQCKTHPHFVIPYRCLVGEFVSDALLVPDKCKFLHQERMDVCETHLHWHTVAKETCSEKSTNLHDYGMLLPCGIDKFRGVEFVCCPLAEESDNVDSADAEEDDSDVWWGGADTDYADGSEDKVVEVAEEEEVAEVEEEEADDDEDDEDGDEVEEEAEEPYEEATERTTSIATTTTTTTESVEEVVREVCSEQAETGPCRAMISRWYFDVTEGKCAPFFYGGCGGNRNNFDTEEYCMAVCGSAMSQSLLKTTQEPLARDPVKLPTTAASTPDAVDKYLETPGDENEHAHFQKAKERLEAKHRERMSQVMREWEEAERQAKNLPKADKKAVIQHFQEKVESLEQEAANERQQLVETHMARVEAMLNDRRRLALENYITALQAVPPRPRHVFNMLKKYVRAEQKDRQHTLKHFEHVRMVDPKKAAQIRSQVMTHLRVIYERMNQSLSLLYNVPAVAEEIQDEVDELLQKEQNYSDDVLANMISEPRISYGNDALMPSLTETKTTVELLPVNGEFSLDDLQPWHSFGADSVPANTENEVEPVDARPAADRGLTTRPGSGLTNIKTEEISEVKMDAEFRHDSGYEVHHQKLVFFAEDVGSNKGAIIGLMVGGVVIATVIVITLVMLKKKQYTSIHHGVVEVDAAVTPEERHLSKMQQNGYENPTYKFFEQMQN

Row | Compound | pIC50 [1] | further results
1 | Oc1ccc2nc(-c3ccc(NCCCF)nc3)oc2c1 | 6.40 | 
2 | CNc1ccc(-c2nc3ccc(O)cc3s2)cn1 | 7.66 | 
3 | CNc1ccc(-c2nc3ccc(O)cc3s2)c(F)n1 | 6.91 | 
4 | CNc1ccc(-c2cc3cc(O)ccc3o2)c(F)n1 [FLUTAFURANOL] | 7.62 | Activity ([2]; tested as the 3H-labelled form): Active; Activity (Mus musculus; tested as the 3H-labelled form): Active
5 | Oc1ccc2nc(-c3ccc(NCCCF)nc3)sc2c1 | 7.18 | 
6 | CNc1ncc(-c2nc3ccc(O)cc3s2)cc1F | 7.01 | 
7 | Oc1ccc2nc(-c3ccc(NCCF)nc3)sc2c1 | 7.48 | 
8 | CNc1ccc(-c2nc3ccc(OC)cc3s2)c(F)n1 | 7.85 | 
9 | CNc1ccc(-c2nc3ccc(O)cc3s2)nc1F | 7.36 | 
10 | CNc1ccc(-c2cc3cc(C(N)=O)ccc3o2)c(F)n1 | 7.72 | 
11 | COc1ccc2nc(-c3ccc(NCCF)nc3)oc2c1 | 7.46 | Activity [3]: inactive
12 | CNc1ncc(-c2cc3cc(O)ccc3o2)cc1F | 7.52 | 
13 | CNc1ccc(-c2cc3cc(O)ccc3o2)nc1F | 7.46 | 
14 | NC(=O)c1ccc(-c2cc3cc(O)ccc3o2)c(F)n1 | 7.36 | 
15 | Oc1ccc2nc(-c3ccc(NCCF)nc3)oc2c1 | 6.80 | 
16 | CNc1ccc(-c2nc3ccc(O)cc3s2)cc1F [FLUTEMETAMOL] | 7.62 | Activity [2]: Active; Activity (Mus musculus): Active
17 | COc1ccc2oc(-c3ccc(C(N)=O)nc3F)cc2c1 | 7.49 | 
18 | CNc1ccc(-c2cc3cc(C(N)=O)ccc3o2)nc1F | 7.49 | 
